According to US9029384B2, “Phosphatidylinositol 3-kinase inhibitors” (Gilead Calistoga LLC, priority 2012, dated 2015):
pEC50, pIC50: −log10 of the molar value.

What was measured:
[1] = Hepatocyte stability, 1% final DMSO, 2 μM substrate (t1/2^a); type: in vitro ADME; conditions: human, cryopreserved hepatocytes, TA with 1% final DMSO, 2 μM substrate, samples at 0, 1, 2, 4 hours; read-out: human hepatocyte t½^a
Method: This assay was used to evaluate the metabolic stability of test articles (TA) following incubation in cryopreserved hepatocytes by monitoring parent drug disappearance via […]. The TA with 1% final DMSO concentration was incubated with 1 million hepatocytes/ml at 2 μM substrate in duplicate. The incubation was carried out at 37° C. with 5% CO2 and saturating humidity.

basophils = test: Basophil activation in human whole blood (Flow2 CAST kit, CD63 positive cells); type: cell-based; conditions: basophils activated with anti-FcεRI mAb or fMLP, geometric mean
In short: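 Human whole blood (K2-EDTA) preincubated 60 minutes at 37° C with compound serial dilutions or DMSO (0.3% final), then stimulated with anti-FcεRI mAb or fMLP and stained for CD63/CCR3. Percent CD63+ among ≥200 CCR3-high basophils by flow cytometry, normalized to stimulated vehicle as 100%. EC50 from four-parameter fits, geometric means in nM, concentrations corrected for reagent dilution.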

PI3Kδ = molecular target: T1, PI3Kδ (Homo sapiens, UniProt O00329); test: Enzymatic activity of PI3K isoforms, TR-FRET assay (PIP3 formation); type: biochemical; conditions: PI3Kδ; TR-FRET, 2×Km ATP, 10 μM PIP2; read-out: IC50
T1 construct: made in house
In short: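 Recombinant heterodimeric class I PI3K; PIP3 product measured by TR-FRET competition with labelled PIP3 for Eu-GRP-1 PH domain. Reaction 30 min at 25 °C, stopped with 10 mM EDTA.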

T1 sequence (O00329 whole entry, canonical isoform): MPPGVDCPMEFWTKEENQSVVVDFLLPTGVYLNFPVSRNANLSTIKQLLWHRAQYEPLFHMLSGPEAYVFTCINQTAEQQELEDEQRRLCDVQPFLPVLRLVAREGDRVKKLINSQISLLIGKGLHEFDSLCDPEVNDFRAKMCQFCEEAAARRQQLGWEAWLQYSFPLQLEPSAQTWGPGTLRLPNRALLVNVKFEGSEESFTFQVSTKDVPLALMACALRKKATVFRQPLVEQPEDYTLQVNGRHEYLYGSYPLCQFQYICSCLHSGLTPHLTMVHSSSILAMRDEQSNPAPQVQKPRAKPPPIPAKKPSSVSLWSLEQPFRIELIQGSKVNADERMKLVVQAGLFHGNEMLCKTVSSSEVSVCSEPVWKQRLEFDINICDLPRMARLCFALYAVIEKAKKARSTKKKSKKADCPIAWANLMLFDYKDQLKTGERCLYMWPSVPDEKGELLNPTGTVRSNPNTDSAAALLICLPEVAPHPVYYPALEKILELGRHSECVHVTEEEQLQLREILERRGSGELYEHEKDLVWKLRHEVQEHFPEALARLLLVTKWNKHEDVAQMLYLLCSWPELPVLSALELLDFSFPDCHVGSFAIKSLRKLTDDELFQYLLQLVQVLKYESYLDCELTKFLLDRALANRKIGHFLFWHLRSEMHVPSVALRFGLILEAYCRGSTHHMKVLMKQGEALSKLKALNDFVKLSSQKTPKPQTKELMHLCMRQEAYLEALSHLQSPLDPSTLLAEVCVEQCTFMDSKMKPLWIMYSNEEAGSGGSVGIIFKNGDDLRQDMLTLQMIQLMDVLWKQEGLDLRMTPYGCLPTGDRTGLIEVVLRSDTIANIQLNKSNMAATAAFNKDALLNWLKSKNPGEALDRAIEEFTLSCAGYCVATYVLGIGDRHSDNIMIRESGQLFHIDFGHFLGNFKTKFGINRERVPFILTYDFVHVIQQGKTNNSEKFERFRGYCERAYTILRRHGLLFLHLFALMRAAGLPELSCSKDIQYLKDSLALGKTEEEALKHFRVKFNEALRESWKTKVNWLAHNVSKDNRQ
T1 sequence (P27986 whole entry partner, canonical isoform): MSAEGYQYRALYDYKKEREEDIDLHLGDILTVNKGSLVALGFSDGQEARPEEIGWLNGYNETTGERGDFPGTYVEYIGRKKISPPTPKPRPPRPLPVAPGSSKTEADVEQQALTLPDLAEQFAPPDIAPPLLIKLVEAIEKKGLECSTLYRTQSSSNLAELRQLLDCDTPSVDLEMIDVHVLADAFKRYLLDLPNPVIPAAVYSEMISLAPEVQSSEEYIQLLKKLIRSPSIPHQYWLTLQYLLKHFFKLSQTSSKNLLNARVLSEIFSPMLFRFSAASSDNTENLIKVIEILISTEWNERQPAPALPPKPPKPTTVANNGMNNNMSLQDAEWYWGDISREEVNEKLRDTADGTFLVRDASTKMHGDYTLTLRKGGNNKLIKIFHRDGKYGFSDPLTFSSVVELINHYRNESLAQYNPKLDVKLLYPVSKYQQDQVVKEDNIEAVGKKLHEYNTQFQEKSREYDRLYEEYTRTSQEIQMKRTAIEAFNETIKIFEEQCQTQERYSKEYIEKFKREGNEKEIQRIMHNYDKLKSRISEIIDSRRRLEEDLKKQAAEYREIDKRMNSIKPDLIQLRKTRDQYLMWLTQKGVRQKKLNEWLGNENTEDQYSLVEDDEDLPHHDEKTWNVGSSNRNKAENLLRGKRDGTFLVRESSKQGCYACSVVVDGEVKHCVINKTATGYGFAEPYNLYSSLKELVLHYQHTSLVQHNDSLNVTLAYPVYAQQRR

SMILES | half-life at 2 μM [1] [h] | pEC50 (basophils; Homo sapiens) | pIC50 (PI3Kδ) | pEC50 (basophils)
CC(C)CC(Nc1nc(N)nc(N)c1C#N)c1nc2cccc(Cl)c2c(=O)n1-c1cc(F)cc(F)c1 (single isomer, unassigned) [Compound 163a] | 1 to 3 | < 7.30 | 8.00 to 9.00 | 
CC(Nc1nc(N)nc(N)c1C#N)c1nc2cccc(C(F)F)c2c(=O)n1-c1cc(F)cc(C(F)F)c1 (single isomer, unassigned) [Compound 99a] | 6 to 10 | 7.30 to 8.00 | 8.00 to 9.00 | 
Cc1ccc(Cl)c2c(=O)n(-c3cccc(Cl)c3)c(C(C)Nc3nc(N)nc(N)c3C#N)nc12 (single isomer, unassigned) [Compound 5a] | 1 to 3 | 8.00 to 9.00 | > 9.00 | 
CC(Nc1nc(N)nc(N)c1C#N)c1nc2c(Cl)ccc(Cl)c2c(=O)n1-c1ccccc1 (single isomer, unassigned) [Compound 50a] | 6 to 10 | > 9.00 | > 9.00 | 
CCC(Nc1nc(N)nc(N)c1C#N)c1nc2c(Cl)cccc2c(=O)n1-c1cc(F)cc(F)c1 (single isomer, unassigned) [Compound 72a] | 6 to 10 | < 7.30 | 7.30 to 8.00 | 
CCC(Nc1nc(N)nc(N)c1C#N)c1nc2cccc(C(F)F)c2c(=O)n1-c1cc(F)cc(F)c1 (single isomer, unassigned) [Compound 53a] | > 10 | 7.30 to 8.00 | 8.00 to 9.00 | 
Cc1cccc2c(=O)n(-c3cc(F)cc(F)c3)c(C(C)Nc3nc(N)nc(N)c3C#N)nc12 (single isomer, unassigned) [Compound 75a] | > 10 | 7.30 to 8.00 | 8.00 to 9.00 | 
CC(Nc1nc(N)nc(N)c1C(N)=O)c1nc2cccc(Cl)c2c(=O)n1-c1cccc(C(F)F)c1 (single isomer, unassigned) [Compound 100a] | 1 to 3 | 8.00 to 9.00 | 8.00 to 9.00 | 
CCC(Nc1nc(N)nc(N)c1C#N)c1nc2cccc(C)c2c(=O)n1-c1cc(F)cc(F)c1 (single isomer, unassigned) [Compound 19a] | 3 to 6 | 8.00 to 9.00 | > 9.00 | 
Cc1ccc(Cl)c2c(=O)n(-c3ccccc3)c(C(C)Nc3nc(N)nc(N)c3C#N)nc12 (single isomer, unassigned) [Compound 4a] | 6 to 10 | 8.00 to 9.00 | > 9.00 | 
CC(Nc1nc(N)nc(N)c1C#N)c1nc2c(Cl)ccc(Cl)c2c(=O)n1-c1cc(F)cc(F)c1 (single isomer, unassigned) [Compound 74a] | 3 to 6 | > 9.00 | 8.00 to 9.00 | 
CC(C)c1cccc(-n2c(C(C)Nc3nc(N)nc(N)c3C#N)nc3cccc(Cl)c3c2=O)c1 (single isomer, unassigned) [Compound 107a] | < 1 | 8.00 to 9.00 | 8.00 to 9.00 | 
CC(Nc1nc(N)nc(N)c1C#N)c1nc2c(F)ccc(Cl)c2c(=O)n1-c1cc(F)cc(F)c1 (single isomer, unassigned) [Compound 15a] | 3 to 6 | > 9.00 | > 9.00 | 
Cc1ccc(F)cc1-n1c(C(C)Nc2nc(N)nc(N)c2C#N)nc2cccc(Cl)c2c1=O (single isomer, unassigned) [Compound 201a-2] | 6 to 10 |  | 8.00 to 9.00 | 8.00 to 9.00
Cc1ccc(Cl)c2c(=O)n(-c3cc(F)cc(F)c3)c(C(C)Nc3nc(N)nc(N)c3C#N)nc12 (single isomer, unassigned) [Compound 73a] | 3 to 6 | > 9.00 | 8.00 to 9.00 | 
CCC(Nc1nc(N)nc(N)c1C#N)c1nc2cccc(Cl)c2c(=O)n1-c1cc(F)cc(C(F)F)c1 (single isomer, unassigned) [Compound 66a] | 3 to 6 | 8.00 to 9.00 | 8.00 to 9.00 | 
CCC(Nc1nc(N)nc(N)c1C#N)c1nc2c(C)cccc2c(=O)n1-c1cc(F)cc(F)c1 (single isomer, unassigned) [Compound 76a] | > 10 | < 7.30 | 7.30 to 8.00 | 
Cc1ccc(F)c2c(=O)n(-c3cc(F)cc(F)c3)c(C(C)Nc3nc(N)nc(N)c3C#N)nc12 (single isomer, unassigned) [Compound 35a] | 6 to 10 | 8.00 to 9.00 | 8.00 to 9.00 | 
Cc1ccc(F)c2nc(C(C)Nc3nc(N)nc(N)c3C#N)n(-c3cc(F)cc(F)c3)c(=O)c12 (single isomer, unassigned) [Compound 25a] | 1 to 3 | > 9.00 | > 9.00 | 

Other lines, results leading:

half-life at 2 μM [1] [h] | pEC50 (basophils; Homo sapiens) | pIC50 (PI3Kδ) | pEC50 (basophils) | SMILES
> 10 | < 7.30 | 7.30 to 8.00 |  | CC(Nc1nc(N)nc(N)c1C#N)c1nc2c(F)ccc(Cl)c2c(=O)n1-c1cc(F)cc(C#N)c1 (single isomer, unassigned) [Compound 48a]
6 to 10 | 8.00 to 9.00 | > 9.00 |  | CC(Nc1nc(N)nc(N)c1C#N)c1nc2cccc(Cl)c2c(=O)n1-c1cc(F)cc(C(F)F)c1 (single isomer, unassigned) [Compound 55a]
6 to 10 | 8.00 to 9.00 | 8.00 to 9.00 |  | Cc1cccc2nc(C(C)Nc3nc(N)nc(N)c3C#N)n(-c3cc(F)cc(C#N)c3)c(=O)c12 (single isomer, unassigned) [Compound 24a]
1 to 3 | > 9.00 | 8.00 to 9.00 |  | COc1cc(F)cc(-n2c(C(C)Nc3nc(N)nc(N)c3C#N)nc3cccc(Cl)c3c2=O)c1 (single isomer, unassigned) [Compound 192a]
3 to 6 | 7.30 to 8.00 | 8.00 to 9.00 |  | CC(Nc1nc(N)nc(N)c1C#N)c1nc2cccc(Cl)c2c(=O)n1-c1cc(Cl)cc(Cl)c1 (single isomer, unassigned) [Compound 41a]
3 to 6 | 8.00 to 9.00 | 8.00 to 9.00 |  | CC(Nc1nc(N)nc(N)c1C#N)c1nc2cccc(Cl)c2c(=O)n1-c1cc(F)cc(Cl)c1 (single isomer, unassigned) [Compound 43a]
6 to 10 | 8.00 to 9.00 | 8.00 to 9.00 |  | CC(Nc1nc(N)nc(N)c1C#N)c1nc2cccc(Cl)c2c(=O)n1-c1cc(F)cc(C#N)c1 (single isomer, unassigned) [Compound 20a]
6 to 10 | 8.00 to 9.00 | 8.00 to 9.00 |  | CCC(Nc1nc(N)nc(N)c1C#N)c1nc2cccc(Cl)c2c(=O)n1-c1cc(F)cc(F)c1 (single isomer, unassigned) [Compound 78a]
6 to 10 | 8.00 to 9.00 | 8.00 to 9.00 |  | Cc1ccc(F)c2nc(C(C)Nc3nc(N)nc(N)c3C#N)n(-c3cc(F)cc(C#N)c3)c(=O)c12 (single isomer, unassigned) [Compound 31a]
3 to 6 | > 9.00 | > 9.00 |  | Cc1cccc2nc(C(C)Nc3nc(N)nc(N)c3C#N)n(-c3cc(F)cc(F)c3)c(=O)c12 (single isomer, unassigned) [Compound 18a]
